The text below walks through data of US11197862B2, “Methods of preventing toxicity of platinum drugs” (XOMICS BIOPHARMA, INC., priority 2015, dated 2021).

Entries after “also recorded” stand apart in the source; their conditions may differ. Some results are limits rather than exact numbers.

The target of series [1] is T1, OCT2 (Homo sapiens, UniProt O15244).
T1 sequence (O15244 1-555): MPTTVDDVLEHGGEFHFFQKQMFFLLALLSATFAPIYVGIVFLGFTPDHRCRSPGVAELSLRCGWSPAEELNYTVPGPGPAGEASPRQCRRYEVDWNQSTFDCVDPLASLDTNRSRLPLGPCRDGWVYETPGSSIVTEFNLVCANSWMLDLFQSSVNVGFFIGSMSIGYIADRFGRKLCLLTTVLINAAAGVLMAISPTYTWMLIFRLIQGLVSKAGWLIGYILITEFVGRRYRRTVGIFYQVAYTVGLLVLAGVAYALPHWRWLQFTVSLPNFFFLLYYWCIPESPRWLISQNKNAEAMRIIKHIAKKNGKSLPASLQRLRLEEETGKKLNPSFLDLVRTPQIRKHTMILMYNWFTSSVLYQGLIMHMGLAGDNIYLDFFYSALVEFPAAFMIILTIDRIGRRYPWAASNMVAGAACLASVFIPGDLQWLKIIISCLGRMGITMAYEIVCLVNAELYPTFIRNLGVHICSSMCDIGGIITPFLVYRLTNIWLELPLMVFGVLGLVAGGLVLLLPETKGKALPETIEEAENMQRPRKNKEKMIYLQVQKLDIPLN
Briefly: Inhibition of OCT2-mediated ASP+ uptake (Kido et al., Giacomini group). Particulars: human, cell line expressing human OCT2 (cell line not given), probe ASP+ 5 μM.

The target in the next series is MATE2K (Homo sapiens, UniProt Q86VL8). Briefly: Inhibition of MATE2K-mediated oxaliplatin transport in human serum or 4% BSA HBSS.
Sequence of MATE2K (Q86VL8 1-566 isoform Q86VL8-3): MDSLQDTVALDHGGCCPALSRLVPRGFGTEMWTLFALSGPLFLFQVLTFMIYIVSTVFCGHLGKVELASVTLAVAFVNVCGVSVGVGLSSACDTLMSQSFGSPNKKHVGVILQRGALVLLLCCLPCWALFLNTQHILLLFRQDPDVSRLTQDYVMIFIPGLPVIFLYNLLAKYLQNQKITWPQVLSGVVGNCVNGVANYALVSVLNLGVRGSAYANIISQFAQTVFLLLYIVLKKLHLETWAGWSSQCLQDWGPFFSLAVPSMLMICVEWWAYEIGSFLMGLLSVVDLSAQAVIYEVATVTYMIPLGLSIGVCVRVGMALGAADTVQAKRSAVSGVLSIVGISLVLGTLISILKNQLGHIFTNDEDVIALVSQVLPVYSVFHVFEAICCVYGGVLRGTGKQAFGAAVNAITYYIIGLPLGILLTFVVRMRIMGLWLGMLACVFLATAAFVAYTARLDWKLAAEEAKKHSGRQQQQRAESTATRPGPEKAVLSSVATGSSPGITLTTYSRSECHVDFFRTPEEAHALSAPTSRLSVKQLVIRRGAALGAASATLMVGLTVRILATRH
In series [2] the target is T1, OCT2. Particulars: OCT2-mediated uptake; ASP+ 5 μM in HBSS; from Kido Y et al. J Med Chem 2011; cited from earlier work.
Another series deals with T2, MATE1 (Homo sapiens, UniProt Q96FL8).
T2 sequence (Q96FL8 1-570): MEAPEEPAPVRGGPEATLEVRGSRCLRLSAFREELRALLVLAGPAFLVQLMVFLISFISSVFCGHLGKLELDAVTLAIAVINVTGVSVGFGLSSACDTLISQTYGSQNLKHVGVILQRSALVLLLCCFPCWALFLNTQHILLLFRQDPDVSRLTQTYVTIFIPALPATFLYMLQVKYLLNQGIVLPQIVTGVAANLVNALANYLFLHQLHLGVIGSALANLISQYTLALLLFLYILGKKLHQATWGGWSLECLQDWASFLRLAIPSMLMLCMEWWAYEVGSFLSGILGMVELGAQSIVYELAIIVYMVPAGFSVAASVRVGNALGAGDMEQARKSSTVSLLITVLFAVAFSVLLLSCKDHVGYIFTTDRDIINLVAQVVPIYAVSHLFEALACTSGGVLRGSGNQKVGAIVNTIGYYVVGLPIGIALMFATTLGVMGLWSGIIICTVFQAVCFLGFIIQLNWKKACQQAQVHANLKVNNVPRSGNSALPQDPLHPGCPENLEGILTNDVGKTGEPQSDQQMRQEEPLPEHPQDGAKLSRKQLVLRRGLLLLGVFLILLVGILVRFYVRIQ
As to the kind of experiment: Inhibition of MATE1-mediated oxaliplatin transport in human serum or 4% BSA HBSS.

Series [3] is described as follows: Published clinical pharmacokinetic data. Particulars: from published Cmax and protein binding.
The target of series [4] is T3, OCT2 over OCT1, OCT3 and MATE1 (Homo sapiens, UniProt O15244).
T3 sequence (O15244 1-555): T1 sequence (O15244 1-555)
Briefly: Inhibition of OCT2-mediated oxaliplatin transport in 100% human serum or HBSS containing 4% BSA (IC50,app). Particulars: human, MDCK-II cells transfected with human transporters, fold higher potency (selectivity) for OCT2 over OCT1, OCT3 and MATE1 in transporting oxaliplatin, from IC50,app of Table 4.
From the text: (§1) Fully confluent MDCK cell monolayers were transfected with either cDNA plasmids encoding the human transporter to be tested or a GFP control. […] The cells were then washed with ice-cold PBS and lysed with 50:50 acetonitrile:H2O. Intracellular content of the substrate was quantified by LC/MS/MS or a MicroBeta radiometric plate reader.

The nature of series [5]: Dolutegravir plasma concentration in Balb/C mice after PO, IV and IP administration. Particulars: 10 mg/kg PO, 4 mg/kg IV, 4 mg/kg IP. The series is classed as in vivo, mouse. The method, then:
Male mice of 6-7 weeks of age were obtained from Charles River and allowed to acclimate for 3-5 days. The mice were weighed and individually identified (tail marked). The mice (n=3) in the oral (PO) group were fasted overnight and orally gavaged with 10 mg/kg of Dolutegravir. The second group of mice (n=3) were intravenously (IV) injected with 4 mg/kg of Dolutegravir. The third group of mice (n=3) were intraperitoneally (IP) injected with 4 mg/kg of Dolutegravir. At 10 min, 0.5 h, 1 h post dosing. ˜120 μl of blood sample was collected from the IV and IP mice by orbital venous sinus bleeding. At 1 h, 2 h, 4 h post dosing, ˜120 μl of blood sample was collected from the PO mice by orbital venous sinus bleeding. […] For analysis, the plasma samples were diluted into the calibration range as needed. […] The calibration curve was extracted in the same way as the unknown samples. The final extracts were analyzed by LC-MS/MS using positive electrospray ionizations under the multiple-reaction-monitoring (MRM) mode for the detection of Dolutegravir. The standard curve fitted by linear regression was used to quantify the analyte in the matrix using Analyst 1.6.2 software (AB Sciex).

Series [6] relates to Balb/c mice exposed to acute treatment with Oxaliplatin. Briefly: Dynamic test (mechanical pain threshold) after a single oxaliplatin administration. The series is classed as in vivo, mouse. To be noted: 24 hours after single OXA 3.5 mg/kg iv, DTG 4 mg/kg ip 1 hour before, CPC 4 mg/kg iv co-administered. The method, then:
OXA vehicle, OXA, CPC, DTG, DTG+OXA and CPC+OXA were administered once time. In the group co-administered with OXA and DTG. DTG was injected intraperitoneally 1 hour before the administration of OXA. In the group co-administered with OXA and CPC, CPC was co-administered with OXA intravenously. Mechanical allodynia and cold sensory threshold (dynamic test and cold plate test) were performed 24 and 48 hours after the treatment, respectively, using the methods described in EXAMPLE 15 Plasma Sample Collection

A further series deals with HT-29 cells. Briefly: Anti-proliferation study (SRB assay) in HT-29 cells. To be noted: for effect on anti-tumor potency of gemcitabine in HT-29: buflomedil 6 μM, FIG. 13; for effect on anti-tumor potency of 5-FU in HT-29: buflomedil 6 uM, dolutegravir 3, 6 and 9 μM, FIG. 12.
The next series has as its system HepG2 cells. Briefly: Anti-proliferation study (SRB assay) in HepG2 cells. To be noted: FIG. 10. (The SRB assay estimates cell density from bound dye.)

Method for HT-29 cells: (§2) The potency was determined by the sulforhodamine B (SRB) assay in 96-well plates. […] Seeding density was 3000 cells/well for both cell lines.
Method for HepG2 cells: as §2
From the text for MATE2K: as §1

One may read the IC50 as the point on the concentration scale where inhibition reaches its midpoint. A low value points to inhibition by little substance. As to `Clc1ccc(COC(Cn2ccnc2)c2ccc(Cl)cc2Cl)c(Cl)c1` (centres unmarked) [Miconazole], the potency estimated from few doses on OCT2 [1] was 2 µM. For the same compound, the IC50 against MATE2K and against MATE1 was more than 100 µM throughout. In addition, the “Inhibition % @ 20 μM (substrate ASP+)” value on OCT2 [2] is listed as 91%.
`C[C@@H]1CCO[C@H]2Cn3cc(C(=O)NCc4ccc(F)cc4F)c(=O)c(O)c3C(=O)N12` [Dolutegravir]: the “Plasma peak unbound concentration Cmax,u” value in series [3] is 50 nM. Moreover, in [4], the selectivity ratio is not below 10. Also, the “effect of route of administration on plasma exposure” value in [5] is recorded as “route of administration significantly affected dolutegravir plasma exposure”. Also, the “Mechanical Pain Threshold (MPT), mechanical hypersensitivity” value in series [6] was “effective on reducing mechanical hypersensitivity”. Further, the “Mechanical Pain Threshold (MPT), mechanical hypersensitivity” value in [6] (listed as DTG) is listed as “nearly completely alleviated mechanical hypersensitivity”. Further, in the series on HT-29 cells, the “effect on anti-tumor potency of gemcitabine in HT-29” value is “did not impact the anti-tumor effect of 5-FU and gemcitabine”; the “effect on anti-tumor potency of 5-FU in HT-29” value was “did not impact the anti-tumor effect of 5-FU and gemcitabine; also recorded: did not affect anti-tumor potency of 5-FU”.
On to `COc1cc(OC)c(C(=O)CCCN2CCCC2)c(OC)c1` [Buflomedil, 4-pyrrolidin-1-yl-1-(2,4,6-trimethoxyphenyl)butan-1-one], for which the potency estimated from few doses on OCT2 [1] was less than 0.1 µM. Further, in [3], the “Plasma peak unbound concentration Cmax,u” value came to 2040 nM. The selectivity ratio in series [4] was more than 10. The “effect on anti-tumor potency of oxaliplatin in HepG2” value in the series on HepG2 cells was “not buflomedil”. Moreover, on MATE2K, half-maximal inhibition (IC50) was put at 84 ± 23.1 µM. Moreover, the “Inhibition % @ 20 μM (substrate ASP+)” value on OCT2 [2] is on record as 104%. Further, the IC50 against MATE1 stood at 32.7 ± 5.4 µM. In the series on HT-29 cells, the “effect on anti-tumor potency of gemcitabine in HT-29” value is “did not impact the anti-tumor effect of 5-FU and gemcitabine; also recorded: did not affect anti-tumor potency of gemcitabine”; the “effect on anti-tumor potency of 5-FU in HT-29” value was “did not impact the anti-tumor effect of 5-FU and gemcitabine; also recorded: did not affect anti-tumor potency of 5-FU”.
